Measurements as given in US10172816B2, “Method of treating chronic obstructive pulmonary disease (CPD) with verproside” (YUNGJIN PHARMACEUTICAL CO., LTD, priority 2013, dated 2019).

How the values were obtained:
[1] = target: ADBR2 (beta-2 adrenergic receptor) GPCR (Homo sapiens, UniProt P07550); experiment: ADBR2 GPCR-targeting cell-based assay (spot formation); settings: 20 micromole; U2OS cells stably expressing ADBR2 GPCR
Mucin 5A/C [2] = experiment: Acrolein-induced Mucin 5A/C expression in A549 cells (RT-PCR); format: cell-based, human; settings: pre-treated 1 hour, then 30 nM acrolein, dose dependent
Method: The diluted A549 cell line (ATCC, CCL-185) with DMEM medium supplemented with 5% phenol red and FBS (Fetal Bovine Serum) was seeded in 6 well plates (4×10^5 cells/well) to adhere thereto for a night, and 20 and 40 microgram/ml of ATC2 extract were treated with A549 cell line for 1 hours. 30 nM acrolein was treated therewith to induce Mucin 5A/C expression. The medium was removed the cell, washed with PBS solution and homogenized with Trizol (Invitrogen, CA, USA) for the isolation of ribonucleic acids from the cells for 5 mins. the cells were collected, transferred to centrifugal separator, completely mixed with chloroform for 15 seconds, left alone for 3 mins and centrifuged for 15 mins at the speed of 14,000 rpm. The supernatant containing ribonucleic acid was transferred to new tube and mixed with isopropylalcohol for 10 mins. The solution was centrifuged to discard the supernatant and 75% ethanol was added to the precipitate. The precipitate was centrifuged for 5 mins at the speed of 10,000 rpm and the supernatant was discarded. The precipitated ribonucleic acid was dried at room temperature for 20 mins. […] After the quantification of ribonucleic acid, the complementary DNA was synthesized using by 1 microgram of RNA and RT-kit (Omniscript RT kit, Qiagen, USA) and the synthetic cDNA was used as a template. […]

[3] = tested on: inflammatory immunocytes and neutrophils in BALF; experiment: COPD mouse model (LPS+CS, i.t.): immunocytes, neutrophils and T lymphocytes in BALF; format: in vivo, BALB/c mice; settings: 15 mg/kg, p.o.
Method: Specific pathogen-free male BALB/c mice (about 18-20 g), aged 8 weeks, which were routinely screened serologically for relevant respiratory pathogens, were purchased from ORIENT Co. (www.orient.co.kr, Seoul, Korea) and bred allowing to access freely to feed and water in breeding room controlling the temperature of 22±2° C., and humidity of 55±15% at the light-dark cycle for 12 hours and acclimated with the experimental environment for 1 week. […] 8 weeks aged BALB/c male mice was anaesthetized with 7% chloral hydrate and 100 μl of LPS+CS mixture {LPS (100 μg/ml)+standard cigarette extract (Cigarette smoking (CS), 4 mg/ml)=1:1} was inhaled to mice (i.t.) for three weeks once a week to prepare COPD animal model. Briefly, 100 μl of LPS+CS mixture was evenly inhaled to nose and mouth of fastened mice (i.t). […] After the end of experiment, the blood, BALF, and pneumonocyte of each mice were isolated and collected to test. After blood collection, 1 ml of FBS-free/DMEM medium contained in injector was injected to the trachea of autopsied mice, and the mice was fixed with string to circulate the blood three times and isolate the cell from BALF. […] The isolated PBMCs, BAL (Bronchoalveolar lavage), and pneumocyte were adjusted to 5×10^5 cells and performed to immunofluorescence staining at 4° C. PE-anti-CD3e (553064, BD Pharmingen, USA), FITC-anti-CD8 (553031, BD Pharmingen, USA), PE-anti-CD4 (553047, BD Pharmingen, USA), PE-anti-Gr-1 (553128, BD Pharmingen, USA), and FITC-anti-neutrophil (ab55453, Abcam, UK) were added thereto, respectively, and reacted for 30 mins in ice. After the reaction, the cells were washed with phosphate buffered physiological saline solution more than three times and the cell frequency (%) of CD3^+CD4^+& CD3^+CD8^+, and Gr-1^+Neutrophil^+ was determined using by Cell Quest program (643274, BD Biosciences, USA) of the flow cytometer (FACSCalibur, Becton, Dickinson, USA) and the absolute total number in each tissue was calculated by applying total cells.

[4] = tested on: KC/CXCL-1 (Chemokines Gro-α); experiment: COPD mouse model (LPS+CS): KC/CXCL-1 in BALF by ELISA; format: in vivo, BALB/c mice; settings: 15 mg/kg, p.o.
Method: (§1) 8 weeks aged BALB/c male mice was anaesthetized with 7% chloral hydrate and 100 μl of LPS+CS mixture {LPS (100 μg/ml)+standard cigarette extract (Cigarette smoking (CS), 4 mg/ml)=1:1} was inhaled to mice (i.t.) for three weeks once a week to prepare COPD animal model. Briefly, 100 μl of LPS+CS mixture was evenly inhaled to nose and mouth of fastened mice (i.t). […] After the end of experiment, the blood, BALF, and pneumonocyte of each mice were isolated and collected to test. The level of IL-1β, IL-6, TNF-a, IL-17, MCP-1, and GRO-a (BioSource, USA) in BALF isolated from mice was determined by enzyme-linked immuno-sorbent assay. Respective antibodies against L-1β, IL-6, TNF-a, IL-17, MCP-1, and GRO-a were diluted with a coating buffer solution (291195, R&D System, USA), coated on a microwell and left alone for overnight at 4° C. Each well was washed three times with washing buffer solution and 100 μl of 10-fold diluted serum was added thereto. […] The solution was left alone for 30 mins in shadow and added with 50 μl of stop solution (DY994, R&D system, USA) to determine the absorbance using by ELISA leader at 450 nm (340PC384, Molecular Devices, USA).

TNF-α = experiment: COPD mouse model (LPS+CS): TNF-α in BALF by ELISA; format: in vivo, BALB/c mice; settings: 15 mg/kg, p.o.
Method: as §1

MIP-2/CXCL-2 = experiment: COPD mouse model (LPS+CS): MIP-2/CXCL-2 in BALF by ELISA; format: in vivo, BALB/c mice; settings: 15 mg/kg, p.o.
Mucin 5A/C [5] = experiment: Digitization of Mucin 5A/C expression in A549 cells by high content screening; format: cell-based, human; settings: 1, 5 and 10 ng/ml, versus control medium (GM)
Method: Accordingly, the present inventors developed novel high throughput screening test by introducing high content screening system which can quantitatively determine the expression of target protein in animal cell level and in order to screening the inhibiting agent of Mucin 5AC expression, following test was performed by modifying the target activator method published on Cellomics BioApplication.
A549 cell line (ATCC, CCL-185), a epithelial cell line isolated from human lung cancer tissue was seeded on 96 well plates (5,000 cells/well) and 24 hrs after the seeding, 20 ng/ml of bFGF, 100 ng/ml of EGF, 20 micromole IGF, 5 ng/ml of TGF-beta1, 30 nanomole acrolein, 5 nanomole PMA, 1 microgram/ml, LPS and 20 ng/ml of IL-1 beta were treated therewith. The expression of Mucin 5A/C was digitized by target activator program in Cellomics apparatus.
Various concentrations of TGF-beta 1 (PeproTech, #100-21), i.e., 1, 5 and 10 ng/ml TGF-beta 1 were treated with A549 cell line (ATCC, CCL-185), and the expression of Mucin 5A/C was digitized by target activator program in Cellomics apparatus.
Various concentrations of ATC2 extract were treated with A549 cell line for 2 hours and then […] TNF-alpha (Sigma, H8916) was treated therewith for 24 hours. The expression of Mucin 5A/C was digitized by target activator program in Cellomics apparatus.

ADBR2 (beta-2 adrenergic receptor) GPCR, sequence (P07550 whole entry): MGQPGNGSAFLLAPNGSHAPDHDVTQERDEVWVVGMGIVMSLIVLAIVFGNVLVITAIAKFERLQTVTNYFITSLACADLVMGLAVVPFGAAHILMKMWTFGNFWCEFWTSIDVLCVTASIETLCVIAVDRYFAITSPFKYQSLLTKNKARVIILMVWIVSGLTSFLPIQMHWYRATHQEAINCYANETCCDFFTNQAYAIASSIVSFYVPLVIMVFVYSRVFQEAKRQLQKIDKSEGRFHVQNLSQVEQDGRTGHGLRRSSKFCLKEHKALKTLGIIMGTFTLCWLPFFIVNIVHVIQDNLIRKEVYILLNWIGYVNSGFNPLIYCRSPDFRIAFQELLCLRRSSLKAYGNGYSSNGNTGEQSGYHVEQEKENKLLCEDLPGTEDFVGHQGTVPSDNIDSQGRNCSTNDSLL

COc1ccc(C(=O)O[C@H]2[C@@H]3C=CO[C@@H](O[C@@H]4O[C@H](CO)[C@@H](O)[C@H](O)[C@H]4O)[C@@H]3[C@@]3(CO)O[C@@H]23)cc1OC [6-O-veratroyl catalpol, 6-O-(3,4-dimethoxybenzoly) catalpol]
spot formation [1]: did not show spot formation | expression of Mucin 5A/C (mRNA, RT-PCR) (Mucin 5A/C [2]): inhibited

O=C(Nc1c(Cl)cncc1Cl)c1ccc(OC(F)F)c(OCC2CC2)c1 [Roflumilast, reference compound]
number of total immunocyte in BALF compared with control group [3]: sharply reduced | reduction of number of neutrophils (Diff-Quik stained, cytospin) in BALF compared with control group [3]: > 99.0% | reduction of total absolute cell number of CD8+ T cell in BALF compared with control group [3]: more than 67.2% | reduction of total absolute cell number of Neutrophils+Gr-1+ cell in BALF compared with control group [3]: > 97.5% | reduction of chemokine KC/CXCL-1 in BALF compared with control group [4]: > 82.7% | reduction of TNF-α in BALF compared with control group (TNF-α): > 65.0% | reduction of chemokines MIP-2/CXCL-2 in BALF compared with control group (MIP-2/CXCL-2): > 81.9%

O=C(O[C@H]1[C@@H]2C=CO[C@@H](O[C@@H]3O[C@H](CO)[C@@H](O)[C@H](O)[C@H]3O)[C@@H]2[C@@]2(CO)O[C@@H]12)c1ccc(O)cc1 [catalposide, 6-O-(4-hydroxybenzolyl) catalpol]
spot formation [1]: did not show spot formation

COc1ccc(C(=O)OC2C3C=COC(OC4OC(CO)C(O)C(O)C4O)C3C3(CO)OC23)cc1O (centres unmarked) [isovanilloyl catalpol, 6-O-(3-hydroxy-4-methoxybenzoyl)catalpol]
spot formation [1]: did not show spot formation

COc1cc(C(=O)O[C@H]2[C@@H]3C=CO[C@@H](O[C@@H]4O[C@H](CO)[C@@H](O)[C@H](O)[C@H]4O)[C@@H]3[C@@]3(CO)O[C@@H]23)ccc1O [picroside II, 6-O-(4-hydroxy-3-methoxybenzoly) catalpol]
spot formation [1]: did not show spot formation

COc1ccc(C(=O)O)cc1OC [veratric acid]
spot formation [1]: did not show spot formation

TGF-beta1: TGF-beta 1 (PeproTech, #100-21)
expression of Mucin 5A/C (Mucin 5A/C [5]): more inhibited the expression of MUCSA/C than control medium
